Measurements from PubChem BioAssay AID248 (DTP/NCI, 2004).
Where “and” joins values, the source holds several entries; their conditions need not be identical. Equal values may be shown once. Inconclusive results and toxic doses are left out. Cut-off read from the data, not from the text of the source: active = T/C of 150% or more; inactive = T/C below 125%.

System: L1210 leukemia ip in BDF1 mice, survival T/C
Experiment: NCI In Vivo Anticancer Drug Screen. Data for tumor model L1210 Leukemia (intraperitoneal) in B6D2F1 (BDF1) mice
Conditions: higher = longer survival
Summary of the method: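 Ratio derived from survival: compound-dosed mice over vehicle-dosed mice, all bearing a transplantable tumor.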

[1] = endpoint: mean survival time, dose: 100.0 mg/kg/injection, schedule: Q01DX009 (ip), vehicle: Klucel (hydroxypropylcellulose) (HPC)
[2] = endpoint: mean survival time, dose: 200.0 mg/kg/injection, schedule: Q01DX009 (ip), vehicle: Klucel (hydroxypropylcellulose) (HPC)
[3] = endpoint: mean survival time, dose: 100.0 mg/kg/injection, schedule: Q04DX003 (ip), vehicle: Klucel (hydroxypropylcellulose) (HPC)
[4] = endpoint: mean survival time, dose: 200.0 mg/kg/injection, schedule: Q04DX003 (ip), vehicle: Klucel (hydroxypropylcellulose) (HPC)
[5] = endpoint: mean survival time, dose: 100.0 mg/kg/injection, schedule: Q01DX001 (ip), vehicle: carboxymethylcellulose (CMC)
[6] = endpoint: mean survival time, dose: 200.0 mg/kg/injection, schedule: Q01DX001 (ip), vehicle: carboxymethylcellulose (CMC)

Measured: T/C

O=C(/C=N\O)c1ccncc1
inactive: [1] 100 % of control | [2] 94 % of control

C/C=C\c1ccc(OC(=O)Nc2cccc(Cl)c2)c(OC)c1
inactive: endpoint: mean survival time, dose: 100.0 mg/kg/injection, schedule: Q04DX002 (ip), vehicle: Klucel (hydroxypropylcellulose) (HPC) 101 % of control | endpoint: mean survival time, dose: 200.0 mg/kg/injection, schedule: Q04DX002 (ip), vehicle: Klucel (hydroxypropylcellulose) (HPC) 95 % of control | endpoint: mean survival time, dose: 400.0 mg/kg/injection, schedule: Q04DX002 (ip), vehicle: Klucel (hydroxypropylcellulose) (HPC) 92 % of control

O=C1C(Cl)=C(NC2CCCC2)C(=O)c2ccccc21
inactive: endpoint: mean survival time, dose: 12.5 mg/kg/injection, schedule: Q01DX001 (ip), vehicle: saline with Tween-80 94 % of control | endpoint: mean survival time, dose: 25.0 mg/kg/injection, schedule: Q01DX001 (ip), vehicle: saline with Tween-80 94 % of control

CCCCCCCCCC(O)CCC (stereo not drawn)
inactive: [1] 103 % of control | [3] 96 % of control | [2] 109 % of control | [4] 91 % of control | endpoint: mean survival time, dose: 400.0 mg/kg/injection, schedule: Q01DX009 (ip), vehicle: Klucel (hydroxypropylcellulose) (HPC) 103 % of control | endpoint: mean survival time, dose: 400.0 mg/kg/injection, schedule: Q04DX003 (ip), vehicle: Klucel (hydroxypropylcellulose) (HPC) 89 % of control

CS(=O)(=O)OCCN(CCOS(C)(=O)=O)c1ccc(C=Nc2cc(Cl)c(O)c(Cl)c2)cc1
inactive: endpoint: mean survival time, dose: 20.0 mg/kg/injection, schedule: Q04DX003 (ip), vehicle: Klucel (hydroxypropylcellulose) (HPC) 107 % of control | endpoint: mean survival time, dose: 40.0 mg/kg/injection, schedule: Q04DX003 (ip), vehicle: Klucel (hydroxypropylcellulose) (HPC) 120 % of control | endpoint: mean survival time, dose: 80.0 mg/kg/injection, schedule: Q04DX003 (ip), vehicle: Klucel (hydroxypropylcellulose) (HPC) 86 % of control | [3] 110 % of control

NC(=S)Cc1ccccc1
inactive: endpoint: mean survival time, dose: 100.0 mg/kg/injection, schedule: Q01DX001 (ip), vehicle: Klucel (hydroxypropylcellulose) (HPC) 91 % of control | endpoint: mean survival time, dose: 200.0 mg/kg/injection, schedule: Q01DX001 (ip), vehicle: Klucel (hydroxypropylcellulose) (HPC) 87 % of control | endpoint: mean survival time, dose: 400.0 mg/kg/injection, schedule: Q01DX001 (ip), vehicle: Klucel (hydroxypropylcellulose) (HPC) 100 % of control

c1ccc(N/N=C(\c2ccccc2)c2ccccn2)cc1
inactive: endpoint: mean survival time, dose: 100.0 mg/kg/injection, schedule: Q01DX001 (ip), vehicle: saline with Tween-80 105 % of control | endpoint: mean survival time, dose: 200.0 mg/kg/injection, schedule: Q01DX001 (ip), vehicle: saline with Tween-80 94 % of control | endpoint: mean survival time, dose: 400.0 mg/kg/injection, schedule: Q01DX001 (ip), vehicle: saline with Tween-80 94 % of control

C/C(=C(/CCO)SCCC(=O)c1ccccc1)N(C=O)Cc1cnc(C)nc1N
inactive: endpoint: mean survival time, dose: 100.0 mg/kg/injection, schedule: Q04DX003 (ip), vehicle: saline 101 % of control | endpoint: mean survival time, dose: 200.0 mg/kg/injection, schedule: Q04DX003 (ip), vehicle: saline 93 % of control | endpoint: mean survival time, dose: 400.0 mg/kg/injection, schedule: Q04DX003 (ip), vehicle: saline 93 % of control

CCC(Cl)COP(=O)(CC(Cl)CC)O/C(C)=C(\C)OP(=O)(OCC(Cl)CC)OCC(Cl)CC (stereo not drawn)
inactive: endpoint: mean survival time, dose: 25.0 mg/kg/injection, schedule: Q04DX002 (sc), vehicle: olive oil, sesame oil, peanut oil 104 % of control | endpoint: mean survival time, dose: 50.0 mg/kg/injection, schedule: Q04DX002 (sc), vehicle: olive oil, sesame oil, peanut oil 93 % of control | endpoint: mean survival time, dose: 100.0 mg/kg/injection, schedule: Q04DX002 (sc), vehicle: olive oil, sesame oil, peanut oil 107 % of control

Cc1c(N)nc([C@H](CC(N)=O)NC[C@H](N)C(N)=O)nc1C(=O)N[C@H](C(=O)N[C@H](C)[C@@H](O)[C@H](C)C(=O)N[C@H](C(=O)NCCc1nc(-c2nc(C(=O)NCCC[S+](C)C)cs2)cs1)[C@@H](C)O)C(OC1OC(CO)C(O)C(O)C1OC1OC(CO)C(O)C(OC(N)=O)C1O)c1cnc[nH]1 (stereo partly drawn)
inactive: endpoint: mean survival time, dose: 0.35 mg/kg/injection, schedule: Q01DX009 (ip), vehicle: saline 99 % of control and 100 % of control | endpoint: mean survival time, dose: 0.7 mg/kg/injection, schedule: Q01DX009 (ip), vehicle: saline 100 % of control | endpoint: mean survival time, dose: 1.3 mg/kg/injection, schedule: Q01DX009 (ip), vehicle: saline 99 % of control and 107 % of control | endpoint: mean survival time, dose: 2.0 mg/kg/injection, schedule: Q01DX009 (ip), vehicle: saline 101 % of control | endpoint: mean survival time, dose: 2.0 mg/kg/injection, schedule: Q04DX002 (ip), vehicle: saline 97 % of control | endpoint: mean survival time, dose: 2.5 mg/kg/injection, schedule: Q01DX009 (ip), vehicle: saline 110 % of control and 119 % of control | endpoint: mean survival time, dose: 4.0 mg/kg/injection, schedule: Q01DX009 (ip), vehicle: saline 107 % of control and 109 % of control and 112 % of control | endpoint: mean survival time, dose: 4.0 mg/kg/injection, schedule: Q04DX002 (ip), vehicle: saline 103 % of control and 105 % of control | endpoint: mean survival time, dose: 5.0 mg/kg/injection, schedule: Q01DX009 (ip), vehicle: saline 94 % of control and 107 % of control | endpoint: mean survival time, dose: 5.8 mg/kg/injection, schedule: Q01DX009 (ip), vehicle: clinical formulation 93 % of control | endpoint: mean survival time, dose: 7.81 mg/kg/injection, schedule: Q01DX009 (ip), vehicle: saline 109 % of control | endpoint: mean survival time, dose: 8.0 mg/kg/injection, schedule: Q01DX009 (ip), vehicle: saline 104 % of control and 109 % of control and 110 % of control | endpoint: mean survival time, dose: 8.0 mg/kg/injection, schedule: Q04DX002 (ip), vehicle: saline 100 % of control and 108 % of control | endpoint: mean survival time, dose: 8.7 mg/kg/injection, schedule: Q01DX009 (ip), vehicle: clinical formulation 95 % of control | endpoint: mean survival time, dose: 10.0 mg/kg/injection, schedule: Q01DX009 (ip), vehicle: saline 106 % of control and 110 % of control | endpoint: mean survival time, dose: 13.0 mg/kg/injection, schedule: Q01DX009 (ip), vehicle: clinical formulation 92 % of control | endpoint: mean survival time, dose: 15.62 mg/kg/injection, schedule: Q01DX009 (ip), vehicle: saline 104 % of control | endpoint: mean survival time, dose: 16.0 mg/kg/injection, schedule: Q01DX009 (ip), vehicle: saline 93 % of control and 108 % of control and 114 % of control | endpoint: mean survival time, dose: 16.0 mg/kg/injection, schedule: Q04DX002 (ip), vehicle: saline 97 % of control and 103 % of control | endpoint: mean survival time, dose: 20.0 mg/kg/injection, schedule: Q01DX009 (ip), vehicle: clinical formulation 93 % of control | endpoint: mean survival time, dose: 30.0 mg/kg/injection, schedule: Q01DX009 (ip), vehicle: clinical formulation 87 % of control | endpoint: mean survival time, dose: 31.0 mg/kg/injection, schedule: Q04DX002 (ip), vehicle: saline 103 % of control and 106 % of control | endpoint: mean survival time, dose: 31.25 mg/kg/injection, schedule: Q01DX001 (ip), vehicle: saline 100 % of control | endpoint: mean survival time, dose: 31.25 mg/kg/injection, schedule: Q01DX009 (ip), vehicle: saline 116 % of control | endpoint: mean survival time, dose: 32.0 mg/kg/injection, schedule: Q01DX009 (ip), vehicle: saline 113 % of control and 91 % of control and 92 % of control | endpoint: mean survival time, dose: 62.0 mg/kg/injection, schedule: Q04DX002 (ip), vehicle: saline 93 % of control and 101 % of control | endpoint: mean survival time, dose: 62.5 mg/kg/injection, schedule: Q01DX001 (ip), vehicle: saline 122 % of control | endpoint: mean survival time, dose: 62.5 mg/kg/injection, schedule: Q01DX009 (ip), vehicle: saline 107 % of control | endpoint: mean survival time, dose: 125.0 mg/kg/injection, schedule: Q01DX001 (ip), vehicle: saline 106 % of control | endpoint: mean survival time, dose: 125.0 mg/kg/injection, schedule: Q01DX009 (ip), vehicle: saline 97 % of control | endpoint: mean survival time, dose: 250.0 mg/kg/injection, schedule: Q01DX001 (ip), vehicle: saline 106 % of control | endpoint: median survival time, dose: 3.0 mg/kg/injection, schedule: Q01DX009 (ip), vehicle: saline 99 % of control | endpoint: median survival time, dose: 4.0 mg/kg/injection, schedule: Q01DX009 (ip), vehicle: saline 100 % of control and 110 % of control | endpoint: median survival time, dose: 5.0 mg/kg/injection, schedule: Q01DX009 (ip), vehicle: saline 101 % of control | endpoint: median survival time, dose: 8.0 mg/kg/injection, schedule: Q01DX009 (ip), vehicle: saline 106 % of control and 120 % of control | endpoint: median survival time, dose: 8.4 mg/kg/injection, schedule: Q01DX009 (ip), vehicle: saline 98 % of control | endpoint: median survival time, dose: 14.0 mg/kg/injection, schedule: Q01DX009 (ip), vehicle: saline 96 % of control | endpoint: median survival time, dose: 16.0 mg/kg/injection, schedule: Q01DX009 (ip), vehicle: saline 106 % of control | endpoint: median survival time, dose: 23.0 mg/kg/injection, schedule: Q01DX009 (ip), vehicle: saline 96 % of control | endpoint: median survival time, dose: 32.0 mg/kg/injection, schedule: Q01DX009 (ip), vehicle: saline 100 % of control | endpoint: median survival time, dose: 39.0 mg/kg/injection, schedule: Q01DX009 (ip), vehicle: saline 88 % of control

c1ccc2c(OCCN3CC3)nccc2c1
inactive: [5] 103 % of control | [6] 113 % of control

COc1ccc2nc(N=Nc3c(N)nc(N)[nH]c3=O)sc2c1
inactive: endpoint: mean survival time, dose: 50.0 mg/kg/injection, schedule: Q04DX003 (ip), vehicle: Klucel (hydroxypropylcellulose) (HPC) 102 % of control | [5] 106 % of control | [3] 104 % of control | [6] 106 % of control | [4] 101 % of control | endpoint: mean survival time, dose: 400.0 mg/kg/injection, schedule: Q01DX001 (ip), vehicle: carboxymethylcellulose (CMC) 101 % of control
